Test results taken from patent publication US9540323B2 (BRISTOL-MYERS SQUIBB COMPANY, priority 2012, dated 2017).

What was measured:
[1] = tested on: human platelet rich plasma (PRP); test: ADP induced platelet aggregation assay; conditions: Homo sapiens, Platelet, 5 min, read-out: PA IC50 (μM) @ 10 μM ADP, human PRP, 10 μM ADP, AUC at 5 minute
Protocol: The ability of P2Y1 antagonists covered in the present invention to inhibit platelet aggregation induced by 10 μM ADP was tested using human platelet rich plasma (PRP) as described in Platelet Protocols: Research and Clinical Laboratory Procedures (White, M. M. et al., Academic Press (1999)). Human blood was collected in 30 μM (final concentration in blood) argatroban (GSK) as the anticoagulant at a ratio of 1 mL per 9 mL of blood. The PRP was isolated by centrifugation at 170 g for 12 minutes. The platelet poor plasma (PPP) was used as the blank for optical aggregometry. Compounds of the present invention in DMSO solution was preincubated with 250 μL PRP at 37° C. for 1 minute with stirring speed of 1000 rpm. Aggregation was initiated by addition of 2.5 μL of 1 mM ADP (Chrono-log, Havertown, Pa.) for a final ADP concentration of 10 μM. Platelet aggregation was monitored using Optical Aggregometer (Chrono-log, Havertown, Pa.) and the area under the curve (AUC) at 5 minute was measured. IC50 was calculated using vehicle control as 0% inhibition.

[2] = biological target: cloned human P2Y1 receptors (Homo sapiens (Human), UniProt P47900); test: Binding Assay B - Scintillation Proximity Assay (SPA) for P2Y1 binding, [33P] 2MeS-ADP; conditions: SPA, 0.3 nM [33P] 2MeS-ADP, Cheng-Prusoff; read-out: P2Y1 Ki (nM) using binding assay B
Protocol: Binding Assay B—Scintillation Proximity Assay (SPA) for P2Y1 Binding
A SPA membrane binding assay was used to identify inhibitors of [^33P] […] Reactions were allowed to proceed to completion at room temperature for 1 hour followed by centrifugation of the plate for 5 min. About 40 μL of the aqueous solution was aspirated. Plates were sealed and the [^33P]

Sequence of cloned human P2Y1 receptors (P47900 whole entry): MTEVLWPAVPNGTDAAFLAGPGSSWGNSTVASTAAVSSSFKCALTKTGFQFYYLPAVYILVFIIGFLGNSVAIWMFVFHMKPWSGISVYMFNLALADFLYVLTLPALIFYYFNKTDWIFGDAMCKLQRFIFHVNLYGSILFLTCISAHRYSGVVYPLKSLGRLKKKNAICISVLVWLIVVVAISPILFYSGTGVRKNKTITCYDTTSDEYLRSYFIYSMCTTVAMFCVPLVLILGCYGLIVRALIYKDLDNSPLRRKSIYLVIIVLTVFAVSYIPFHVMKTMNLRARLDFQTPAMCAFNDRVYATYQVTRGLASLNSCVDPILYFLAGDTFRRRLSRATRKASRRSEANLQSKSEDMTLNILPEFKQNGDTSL

With `CC(C)CN1CCCC1c1ccc(NC(=O)Nc2ccccc2N2CC(C)(C)c3c(F)ccc(O)c32)cc1` (centres unmarked) [Example 34, 1-(2-(4-Fluoro-7-hydroxy-3,3-dimethylindolin-1-yl)phenyl)-3-(4-(1-isobutylpyrrolidin-2-yl)phenyl)urea] the IC50 [1] was 1.07 µM and the Ki [2] was 9.8 nM.
For `CCC1(CC)CN(c2ccccc2NC(=O)Nc2ccc(OC(F)(F)F)cc2)c2c1ccc(F)c2O` [Example 35, 1-(2-(3,3-Diethyl-6-fluoro-7-hydroxyindolin-1-yl)phenyl)-3-(4-(trifluoromethoxy)phenyl)urea], the IC50 [1] was 0.38 µM and the Ki [2] was 13.8 nM.
For `CCC1(CC)CN(c2ccccc2NC(=O)Nc2ccc(C3CCN(CC(C)(C)C)CC3)cc2)c2c1ccc(F)c2O` [Example 37, 1-(2-(3,3-Diethyl-6-fluoro-7-hydroxyindolin-1-yl)phenyl)-3-(4-(1-neopentylpiperidin-4-yl)phenyl)urea], the IC50 [1] was 0.89 µM and the Ki [2] was 8.7 nM.
In the case of `CCC1(CC)CN(c2ccccc2NC(=O)Nc2ccc(C(C)(C)C)cc2)c2c1ccc(F)c2O` [Example 38, 1-(4-tert-Butylphenyl)-3-(2-(3,3-diethyl-6-fluoro-7-hydroxyindolin-1-yl)phenyl)urea], the IC50 [1] is reported as 0.43 µM and the Ki [2] is reported as 14.8 nM.
With `CCC1(CC)CN(c2ccccc2NC(=O)Nc2ccc(OC(F)(F)F)cc2)c2c(O)ccc(Br)c21` [Example 39, 1-(2-(3,3-Diethyl-4-bromo-7-hydroxyindolin-1-yl)phenyl)-3-(4-(trifluoromethoxy)phenyl)urea] the IC50 [1] was 0.51 µM and the Ki [2] was 18.8 nM.
In the case of `CC1(C)CN(c2ccccc2NC(=O)Nc2ccc(OC(F)(F)F)cc2)c2c(O)ccc(Br)c21` [Example 40, 1-(2-(4-Bromo-7-hydroxy-3,3-dimethylindolin-1-yl)phenyl)-3-(4-(trifluoromethoxy)phenyl)urea], the IC50 [1] is reported as 0.53 µM and the Ki [2] is reported as 13.8 nM.
With `CC1(C)CN(c2ccccc2NC(=O)Nc2nc3ccc(Cl)cc3s2)c2c(O)ccc(Br)c21` [Example 41, 1-(2-(4-Bromo-7-hydroxy-3,3-dimethylindolin-1-yl)phenyl)-3-(6-chlorobenzo[d]thiazol-2-yl)urea] the IC50 [1] was 0.47 µM and the Ki [2] was 10.6 nM.
`CC1(C)CN(c2ccccc2NC(=O)Nc2nc3ccc(Br)cc3s2)c2c(O)ccc(Br)c21` [Example 42, 1-(2-(4-Bromo-7-hydroxy-3,3-dimethylindolin-1-yl)phenyl)-3-(6-bromobenzo[d]thiazol-2-yl)urea] gave an IC50 [1] of 0.45 µM and a Ki [2] of 27.7 nM.
`CCC1(CC)CN(c2ccccc2NC(=O)Nc2ccc(OC(F)(F)F)cc2)c2c(O)ccc(C#N)c21` [Example 43, 1-(2-(3,3-Diethyl-4-cyano-7-hydroxyindolin-1-yl)phenyl)-3-(4-(trifluoromethoxy)phenyl)urea] was tested, and the IC50 [1] was 0.47 µM and the Ki [2] was 7.8 nM.
With `CCC1(CC)CN(c2ccccc2NC(=O)Nc2ccc(C(C)(C)C)cc2)c2c(O)ccc(C#N)c21` [Example 44, 1-(4-tert-Butylphenyl)-3-(2-(4-cyano-3,3-diethyl-7-hydroxyindolin-1-yl)phenyl)urea] the IC50 [1] was 0.45 µM and the Ki [2] was 6.9 nM.
Work on `CCC1(CC)CN(c2ccccc2NC(=O)Nc2ccc(C3CCN(CC(C)(C)C)CC3)cc2)c2c(O)ccc(C#N)c21` [Example 45, 1-(2-(4-Cyano-3,3-diethyl-7-hydroxyindolin-1-yl)phenyl)-3-(4-(1-neopentylpiperidin-4-yl)phenyl)urea] yielded an IC50 [1] of 0.39 µM and a Ki [2] of 6.7 nM.
For `CCC1(CC)CN(c2ccccc2NC(=O)Nc2ccc(C3CCN(CC(C)C)CC3)cc2)c2c(O)ccc(C#N)c21` [Example 46, 1-(2-(4-Cyano-3,3-diethyl-7-hydroxyindolin-1-yl)phenyl)-3-(4-(1-isobutylpiperidin-4-yl)phenyl)urea], the IC50 [1] was 1 µM and the Ki [2] was 9.5 nM.
`CC1(C)CN(c2ccccc2NC(=O)Nc2ccc(OC(F)(F)F)cc2)c2c(O)ccc(C#N)c21` [Example 47, 1-(2-(4-Cyano-7-hydroxy-3,3-dimethylindolin-1-yl)phenyl)-3-(4-(trifluoromethoxy)phenyl)urea] gave an IC50 [1] of 3.35 µM and a Ki [2] of 18.6 nM.
With `CCC1(CC)CN(c2ccccc2NC(=O)Nc2ccc(C3CCN(CC(C)C)CC3)cc2)c2c(O)ccc(Cl)c21` [Example 50, 1-(2-(4-Chloro-3,3-diethyl-7-hydroxyindolin-1-yl)phenyl)-3-(4-(1-isobutylpiperidin-4-yl)phenyl)urea] the IC50 [1] was 0.86 µM and the Ki [2] was 6.6 nM.
`CCC1(CC)CN(c2ccccc2NC(=O)Nc2ccc(OC(F)(F)F)cc2)c2c(O)ccc(Cl)c21` [Example 51, 1-(2-(4-Chloro-3,3-diethyl-7-hydroxyindolin-1-yl)phenyl)-3-(4-(trifluoromethoxy)phenyl)urea] showed an IC50 [1] of 0.41 µM and a Ki [2] of 14.1 nM.
`CCC1(CC)CN(c2ccccc2NC(=O)Nc2ccc(C(F)(F)F)cc2)c2c(O)ccc(Cl)c21` [Example 52, 1-(2-(4-Chloro-3,3-diethyl-7-hydroxyindolin-1-yl)phenyl)-3-(4-(trifluoromethyl)phenyl) urea] gave an IC50 [1] of 0.28 µM and a Ki [2] of 12.6 nM.
For `CCC1(CC)CN(c2ccccc2NC(=O)Nc2csc(Cl)n2)c2c(O)ccc(Cl)c21` [Example 53, 1-(2-(4-Chloro-3,3-diethyl-7-hydroxyindolin-1-yl)phenyl)-3-(2-chlorothiazol-4-yl)urea], the IC50 [1] was 0.28 µM and the Ki [2] was 5 nM.
For `CCC1(CC)CN(c2ccccc2NC(=O)Nc2nc3c(s2)CN(CC(C)C)CC3)c2c(O)ccc(Cl)c21` [Example 54, 1-(2-(4-Chloro-3,3-diethyl-7-hydroxyindolin-1-yl)phenyl)-3-(5-isobutyl-4,5,6,7-tetrahydrothiazolo[5,4-c]pyridin-2-yl)urea], the IC50 [1] was 0.15 µM and the Ki [2] was 13.3 nM.
Compound `CCC1(CC)CN(c2ccccc2NC(=O)Nc2nc3c(s2)CN(CC(F)(F)F)CC3)c2c(O)ccc(Cl)c21` [Example 55, 1-(2-(4-Chloro-3,3-diethyl-7-hydroxyindolin-1-yl)phenyl)-3-(5-(2,2,2-trifluoroethyl)-4,5,6,7-tetrahydrothiazolo[5,4-c]pyridin-2-yl)urea] has an IC50 [1] of 0.63 µM and a Ki [2] of 16.2 nM.
`CC1(C)CN(c2ccccc2NC(=O)Nc2ccc(OC(F)(F)F)cc2)c2c(O)ccc(Cl)c21` [Example 56, 1-(2-(4-Chloro-7-hydroxy-3,3-dimethylindolin-1-yl)phenyl)-3-(4-(trifluoromethoxy)phenyl)urea] gave an IC50 [1] of 0.87 µM and a Ki [2] of 8.7 nM.
`CC1(C)CN(c2ccccc2NC(=O)Nc2ccc(C(F)(F)F)cc2)c2c(O)ccc(Cl)c21` [Example 57, 1-(2-(4-Chloro-7-hydroxy-3,3-dimethylindolin-1-yl)phenyl)-3-(4-(trifluoromethyl)phenyl) urea] was tested, and the IC50 [1] was 0.9 µM and the Ki [2] was 8.3 nM.
With `CC1(C)CN(c2ccccc2NC(=O)Nc2csc(Cl)n2)c2c(O)ccc(Cl)c21` [Example 58, 1-(2-(4-Chloro-7-hydroxy-3,3-dimethylindolin-1-yl)phenyl)-3-(2-chlorothiazol-4-yl)urea] the IC50 [1] was 0.32 µM and the Ki [2] was 4.1 nM.
For `CC1(C)CN(c2cc(F)ccc2NC(=O)Nc2ccc(F)cc2F)c2c(O)ccc(C(F)(F)F)c21` [Example 59, 1-(2,4-Difluorophenyl)-3-(4-fluoro-2-(7-hydroxy-3,3-dimethyl-4-(trifluoromethyl)indolin-1-yl)phenyl)urea], the IC50 [1] was 0.24 µM and the Ki [2] was 5.7 nM.
In the case of `CC1(C)CN(c2ccc(F)cc2NC(=O)Nc2ccc(F)cc2F)c2c(O)ccc(C(F)(F)F)c21` [Example 60, 1-(2,4-Difluorophenyl)-3-(5-fluoro-2-(7-hydroxy-3,3-dimethyl-4-(trifluoromethyl)indolin-1-yl)phenyl)urea], the IC50 [1] is reported as 0.62 µM and the Ki [2] is reported as 10.6 nM.
For `CC1(C)CN(c2cccc(F)c2NC(=O)Nc2ccc(F)cc2F)c2c(O)ccc(C(F)(F)F)c21` [Example 61, 1-(2,4-Difluorophenyl)-3-(2-fluoro-6-(7-hydroxy-3,3-dimethyl-4-(trifluoromethyl)indolin-1-yl)phenyl)urea], the IC50 [1] was 0.54 µM and the Ki [2] was 5.2 nM.
Compound `CC1(C)CN(c2c(F)cccc2NC(=O)Nc2ccc(F)cc2F)c2c(O)ccc(C(F)(F)F)c21` [Example 62, 1-(2,4-Difluorophenyl)-3-(3-fluoro-2-(7-hydroxy-3,3-dimethyl-4-(trifluoromethyl)indolin-1-yl)phenyl)urea] has an IC50 [1] of 0.75 µM and a Ki [2] of 14.6 nM.
In the case of `CC1(C)CN(c2ccc(F)cc2NC(=O)Nc2nc3ccc(F)cc3s2)c2c(O)ccc(C(F)(F)F)c21` [Example 63, 1-(5-Fluoro-2-(7-hydroxy-3,3-dimethyl-4-(trifluoromethyl)indolin-1-yl)phenyl)-3-(6-fluorobenzo[d]thiazol-2-yl)urea], the IC50 [1] is reported as 0.18 µM and the Ki [2] is reported as 20.8 nM.
In the case of `CC1(C)CN(c2cc(F)ccc2NC(=O)Nc2nc3ccc(F)cc3s2)c2c(O)ccc(C(F)(F)F)c21` [Example 64, 1-(4-Fluoro-2-(7-hydroxy-3,3-dimethyl-4-(trifluoromethyl)indolin-1-yl)phenyl)-3-(6-fluorobenzo[d]thiazol-2-yl)urea], the IC50 [1] is reported as 0.21 µM and the Ki [2] is reported as 13 nM.
With `CC1(C)CN(c2ccccc2NC(=O)Nc2ccc(OC(F)(F)F)cc2)c2c(O)c(F)cc(Cl)c21` [Example 65, 1-(2-(4-Chloro-6-fluoro-7-hydroxy-3,3-dimethylindolin-1-yl)phenyl)-3-(4-(trifluoromethoxy)phenyl)urea] the IC50 [1] was 0.83 µM and the Ki [2] was 14.1 nM.
Work on `CC1(C)CN(c2ccccc2NC(=O)Nc2nc3ccc(Cl)cc3s2)c2c(O)c(F)cc(Br)c21` [Example 66, 1-(2-(4-Bromo-6-fluoro-7-hydroxy-3,3-dimethylindolin-1-yl)phenyl)-3-(6-chlorobenzo[d]thiazol-2-yl)urea] yielded an IC50 [1] of 0.75 µM and a Ki [2] of 21.3 nM.
Work on `CC1(C)CN(c2ccccc2NC(=O)Nc2nc3ccc(F)cc3s2)c2c(O)cc(F)c(Br)c21` [Example 67, 1-(2-(4-Bromo-5-fluoro-7-hydroxy-3,3-dimethylindolin-1-yl)phenyl)-3-(6-fluorobenzo[d]thiazol-2-yl)urea] yielded an IC50 [1] of 0.77 µM and a Ki [2] of 13.8 nM.
